Measurements: patent US4020111A, “Propynyloxy alkyl arene insecticides” (priority 1975, dated 1977)

Key:
[1] = tested on: IN/WHO strain house flies; assay: topical application test, percent kill after 24 hours, IN/WHO strain; assay type: in vivo, house fly (susceptible IN/WHO strain); settings: HRS 1422 alone 0.125 μg/fly
Experimental: In Table IX, and in the tables following it, the doses of topically applied insecticides and of synergists unless otherwise noted are expressed as micrograms per fly (μg/fly).
The synergistic effect of O-(2-propynyl) oximes with mobam was determined from topical application tests on susceptible, female, IN/WHO strain house flies and from tests on resistant, female, Rutgers A strain house flies. The synergist and insecticide were dissolved in ACS Grade acetone in such quantities that a 1.0μ liter volume applied to the thorax of 3-to-5 day old CO2 -anesthetized female adult house flies contained the desired dosage. After being treated, the flies were confined, 10 to a plaster petri dish, with 3-5 dishes/treatment, and held for 24-hr. observation of mortality. Reconstituted skim milk on cotton dental wicks was provided during the holding period. The percent kills after 24 hours are shown in Table X for the IN/WHO strain and Table XI for the Rutgers A strain.
The synergistic effect of benzyl 2-propynyl ethers with mobam was determined from topical application tests on IN/WHO and Rutgers A strain houseflies, following the procedure of Example 5. The percent kills after 24 hours are shown in Table XIV for the IN/WHO strain and in Table XV for the Rutgers A strain.
The effects of varying the insecticide dose and the synergist-insecticide ratio are further illustrated, with synergist compounds II-D, II-E, II-F and Mobam insecticide, in Tables XVI, XVII and XVIII.
The synergistic effect on IN/WHO flies of synergist compound II-K with Dimetilan, pyrolan, Baygon and HRS 1422 is illustrated by the 24 hour percent mortality data in Tables XIX, XX and XXI.
The effect on IN/WHO flies of synergist compound IV-C, identified in Table IV, with mobam was determined by the topical application procedure of Example 5.
The synergistic effect with Diazinon of compounds I-B, I-D, I-F, I-G, I-H and I-I, identified in Tables I and Ia, was determined from topical application tests on IN/WHO strain houseflies and on Rutgers A strain houseflies by the procedure of Example 5. The percent kills after 24 hours are shown in Table XXV for the IN/WHO strain and Table XXVI for the Rutgers A strain.
The synergistic effect with GS 13005 of compounds I-A, I-B, I-D, I-E, I-F, I-G and I-I was determined from topical application tests to IN/WHO strain, Rutgers A strain and polyvalent CH strain houseflies using the procedures of Example 5. The percent kills of the IN/WHO strain flies after 24 hours are shown in Table XXVIII; of the Rutgers A strain, in Table XXIX; and of the polyvalent CH strain, in Table XXX. The doses of insecticide alone to the CH strain files caused 10-40% mortality.
The synergistic effect with Diazinon and GS 13005 of various of the benzyl 2-propynyl ethers identified in Tables II and IIa was determined by topical application tests on IN/WHO strain, and Rutgers A strain and polyvalent, resistant, CH strain houseflies using the procedures of Example 5. The percent kills after 24 hours of IN/WHO strain flies are shown in Table XXXI; of Rutgers A strain flies, in Table XXXII; and of CH strain flies, in Table XXXIII. The doses of insecticide alone to the CH strain flies caused 10-40% mortality.
The synergist effect on IN/WHO flies of synergist compound II-K with Gardona and Bidrin is illustrated by the 24 hour percent mortality data in Tables XXXIV and XXXV.
The synergistic effect on IN/WHO strain flies and Rutgers A strain flies of compound IV-C with GS 13005 and with Diazinon was determined by the topical application procedure of Example 5. The percent kills of IN/WHO strain flies after 24 hours are shown in Tables XXXVI and XXXVII; the percent kills of Rutgers A strain flies are shown in Tables XXXVIII and XXXIX.

[2] = tested on: Wilson strain house flies; assay type: in vivo, house fly (susceptible Wilson strain); settings: for Contact Synergistic Ratio, Carbaryl (LC50 insecticide alone / LC50 with synergist): in vivo; for Contact Synergistic Ratio, Pyrolan (LC50 insecticide alone / LC50 with synergist): synergist to insecticide 5:1 by weight, 24 h
Experimental: The required solutions of the insecticide and of the synergist compound were prepared in acetone at a concentration of one milligram per milliliter. One-pint wide mouth glass jars were coated wiith the appropriate insecticide-synergist combination by rolling the jars containing aliquots of the appropriate solutions diluted to three milliliters with acetone to deposit, by evaporation, a film of the test materials. The flies were transferred under carbon dioxide anesthesia and held in the jar at room temperature. Perforated aluminum foil was used to cover the jars and to hold cotton saturated with 10% sugar solution. Counts were made at intervals, but the recorded mortality was based on 24-hour kill, rather than knockdown. All prostrate nonmoving flies were considered dead. A determination was then made of the contact synergistic ratio [SR], which is the ratio of the LC50 of insecticide alone to the LC50 of the insecticide when applied together with the synergist. The LC50 of the insecticide was estimated from a log-probit plot of percent kill versus dosage. […] The LC50 of the combination of insecticide and synergist was determined at a synergist to insecticide parts by weight ratio of five to one.

mice [3] = assay: extension of Secobarbital sleeping time by synergists; assay type: in vivo, Swiss albino white male mice; settings: Secobarbital 37 mg/K; for Relative Sleeping Time: treated/control
Experimental: (§1) The selectivity of the synergist compounds of this invention is illustrated by the results of sleeping-time extension tests and of acute toxicity tests on Swiss albino white male mice.
(§2) The effect of various synergist compounds on sleeping time of sodium secobarbital [Secobarbital] and of 3,3-diethyl-5-methyl-2,4-dioxypiperidine [Noludar] was determined by administering the drug, with and without synergist, to approximately 38-day old male mice weighing from 25 to 30 grams. Synergists were administered in each of two doses, 74.0 mg/kg (dilution being 2.0 mg/0.1 ml corn oil), and 110.0 mg/kg (dilution 3.0 mg/0.1 ml oil). Secobarbital was administered at a dose of 37.0 mg/kg (dilution 1.0 mg/0.1 ml water). Noludar was administered at a dose of 110.0 mg/kg (dilution 3.0 mg/0.1 ml water). The synergist was administered one hour prior to administration of the Secobarbital or Noludar. Secobarbital and Noludar sleeping times were obtained for both the control (drug only) and the treated (synergist plus drug) mice by noting the time lapse between the administration of the drug and the recovery of the righting reflex, i.e. when the animal regains conciousness and can walk up an inclined wooden tray with coordination. The relative sleeping time (R.S.) was noted. The R.S. is the extended sleeping time in the treated mice (synergist plus drug) divided by the sleeping time in the control mice (drug only). The mean sleeping time for the treated mice and the R.S. are shown on Table XXXXIV for various synergist compounds.

mice [4] = assay: extension of Noludar sleeping time by synergists; assay type: in vivo, Swiss albino white male mice; settings: Noludar 110 mg/K, synergist 110 mg/K; for Relative Sleeping Time: treated/control
Experimental: as §1, §2

mice [5] = assay: synergism of acute toxicity of Dimetilan, GS 13005, Secobarbital and Methadone (intraperitoneal); assay type: in vivo, Swiss albino white male mice; settings: for number of mice dead: 48 hours, of eight mice
Experimental: The synergism of the acute toxicity of Dimetilan by various synergists was determined by tests on Swiss albino, white male mice aged 5 to 6 weeks and weighing 23 to 27 grams. The synergists and insecticides were dissolved in corn oil and the drugs were dissolved in distilled water. All compounds were administered intraperitoneally by injection in the lower quadrent of the abdomen. The synergist was administered in 0.1 ml of corn oil 1 hour prior to administration of the insecticide. Eight mice were treated, per dosage, with each synergist. The mice were watched for a minimum of 6 hours while held in a glass jar with bedding individually after intraperitoneal injection of the test solutions. Lethality was noted, the animals were weighed and transferred in cages, and food and water were supplied. Control mice were given 0.1 ml of corn oil at the time of administration of the synergist to the test mice and 0.1 ml corn oil plus Dimetilan at the time of administration of the insecticide to the test mice.
By the same procedure, the synergism of acute toxicity of GS 13005, Secobarbital and 6-dimethylamino-4,4-diphenyl-3-heptanone [Methadone] was determined.

[6] = Dimetilan 8 mg/kg + synergist 240 mg/kg ip
[7] = Dimetilan 8 mg/kg + synergist 80 mg/kg ip

| SMILES | Contact Synergistic Ratio, Carbaryl (LC50 insecticide alone / LC50 with synergist) [2] | Contact Synergistic Ratio, Pyrolan (LC50 insecticide alone / LC50 with synergist) [2] | Mean Sleeping Time (mice [3]; synergist 74 mg/K) [min] | Relative Sleeping Time (mice [3]; synergist 74 mg/K) | Mean Sleeping Time (mice [3]; synergist 110 mg/K) [min] | Relative Sleeping Time (mice [3]; synergist 110 mg/K) | Mean Sleeping Time (mice [4]) [min] | Relative Sleeping Time (mice [4]) | number of mice dead (mice [5]; [6]) | number of mice dead (mice [5]; [7]) | other results |
| --- | --- | --- | --- | --- | --- | --- | --- | --- | --- | --- | --- |
| CNC(=O)Oc1cc(C(C)C)cc(C(C)C)c1 [HRS 1422, 3,5-di-isopropylphenyl methylcarbamate, reference compound] |  |  |  |  |  |  |  |  |  |  | 24 hour percent mortality [1]: 0% |
| C#CCON=Cc1ccc(N(C)C)cc1 [I-C] | 200 | 20 | 30 | 1.1 | 108 | 1.8 | 34 | 1.0 | 0 |  |  |
| C#CCOCc1ccc(Cl)cc1 [II-A] | 50 | 7 |  |  |  |  |  |  |  |  |  |
| C#CCOCc1ccc(Cl)cc1Cl [II-B] | 50 | 15 |  |  |  |  |  |  |  |  |  |
| C#CCOCc1ccc2c(c1)OCO2 [II-G] | 100 | 15 |  |  |  |  |  |  |  |  |  |
| C#CCOCc1cccc(Cl)c1[N+](=O)[O-] [II-I] |  |  | 31 | 1.2 | 32 | 1.3 | 56 | 1.8 | 3 | 0 |  |
| C#CCOCc1ccc(Cl)cc1[N+](=O)[O-] [II-J] |  |  | 27 | 1.0 | 30 | 1.4 | 70 | 2.2 | 4 | 0 | mice lethality (number dead) (mice [5]; GS 13005 71 mg/kg + synergist 213 mg/kg): 6; mice lethality (number dead) (mice [5]; Methadone 32 mg/kg + synergist 215 mg/kg): 3; mice lethality (number dead) (mice [5]; Secobarbital 90 mg/kg + synergist 215 mg/kg): 0 |
| C#CCOCc1cccc([N+](=O)[O-])c1Cl [II-L] |  |  | 31 | 1.0 | 42 | 1.8 | 56 | 1.8 | 5 | 0 |  |
| C#CCOCc1ccc(Cl)c([N+](=O)[O-])c1 [II-M] |  |  | 29 | 1.0 | 47 | 2 | 47 | 2.1 | 3 | 0 |  |
| C#CCOCc1ccc([N+](=O)[O-])cc1Cl [II-N] |  |  | 20 | 1.0 | 39 | 1.7 | 58 | 1.9 | 4 | 0 |  |
| C#CCOCc1ccc([N+](=O)[O-])c(Cl)c1 [II-O] |  |  |  |  | 26 | 1.1 | 52 | 2.4 | 2 | 0 |  |
| C#CCn1ncc2cc([N+](=O)[O-])ccc21 [III-A] | 143 | 30 |  |  | 50 | 1.1 | 32 | 1.0 | 0 |  |  |
| C#CCn1nc(Cl)c2ccccc21 [III-B] | 117 | 30 |  |  | 6 | 1.3 | 46 | 1.0 | 0 |  |  |
| C#CCn1nc(Cl)c2ccc([N+](=O)[O-])cc21 [III-C, N-(2-propynyl)-3-chloro-6-nitroindazole] | 53 | 10 |  |  |  |  |  |  |  |  |  |
| C#CCOC(c1cccc2ccccc12)C(C)[N+](=O)[O-] (stereo not shown) [IV-B, 2-propynyl 1-naphthyl-2-nitropropyl ether] | 50 | 10 |  |  |  |  |  |  |  |  |  |
| CCC(=O)C(CC(C)N(C)C)(c1ccccc1)c1ccccc1 (stereo not shown) [Methadone, 6-dimethylamino-4,4-diphenyl-3-heptanone, reference compound] |  |  |  |  |  |  |  |  |  |  | mice lethality (number dead) (mice [5]; control: Methadone 32 mg/kg in 0.1 ml corn oil): 2 |
| C=CCC1(C(C)CCC)C(=O)NC(=O)NC1=O (stereo not shown) [Secobarbital, sodium secobarbital, reference compound] |  |  |  |  |  |  |  |  |  |  | mice lethality (number dead) (mice [5]; control: Secobarbital 90 mg/kg in 0.1 ml corn oil): 0 |
